Assay results as given in PMC4429480, “Simultaneous quantification of proposed anti-malarial combination comprising of lumefantrine and CDRI 97–78 in rat plasma using the HPLC–ESI-MS/MS method: application to drug interaction study” (Malaria Journal, 2015).
Marks after values point to notes of the source that are not given here. Each block holds one compound with its values, some of them ahead of it.

Legend:
[1] = Oral pharmacokinetic interaction study of LUME and 97-78 in rats (LC-ESI-MS/MS, non-compartmental analysis); format: in vivo, male Sprague–Dawley rats; details: for RB% (relative bioavailability = AUC coadmin/AUC control × 100): LUME 10 mg/kg oral with 97-78 70 mg/kg oral vs LUME alone; for AUC(0-inf) / AUC(0-t) / CL/F / Cmax / Tmax / Vd/F / half-life: male, Sprague-Dawley, rat, plasma, po, 10 mg/kg, rats n = 5, mean ± SD
Description: Study was performed in male Sprague–Dawley rats (n = 5, weight range 200–220 g). The rats were fasted overnight (14–16 hrs) prior to the experiment but given free access to water. Rats were divided into three groups (n = 5 each): two control groups (LUME, 10 mg/kg, oral, suspension in 0.25% sodium CMC and 97–78, 70 mg/kg, oral, suspension in 0.25% sodium CMC), and one co-administration group (70 mg/kg of oral 97–78 and 10 mg/kg of oral LUME). Blood samples (approximately 0.25 mL) were collected from the retro-orbital plexus into heparinized microfuge tubes at 0.25, 0.50, 1, 3, 6, 9, 11, 13, 15, 24, 48, 72, and 120 hrs post-dosing and plasma was harvested by centrifuging the blood at 15,000xg for 10 min and stored frozen at −70 ± 10°C until bio-analysis.
Plasma data were subjected to non-compartmental pharmacokinetics analysis using WinNonlin (version 5.1, Pharsight Corp, Mountain View, CA, USA). The observed maximum plasma concentration (Cmax) and the time to reach the maximum plasma concentration (Tmax) were obtained by visual inspection of the experimental data. Area under the plasma concentration-time curve from time zero to the last quantifiable concentration (AUC0-t) was calculated using linear trapezoidal rule. The total area under the plasma concentration–time curve from time zero to time infinity (AUC0-∞) was calculated as the sum of AUC0-t and Clast/kel, where, Clast represents the last quantifiable concentration and Kel represents the terminal phase rate constant. The apparent elimination half-life (t1/2) was calculated as 0.693/kel and the kel was estimated by linear regression of the plasma concentrations in the log-linear terminal phase. The clearance (Cl/F); where F represents the oral bioavailability, was calculated as dose/AUC, and the volume of distribution (Vd/F) was calculated as (Cl/F)/kel. The data is presented as a mean ± SD. The pharmacokinetic parameters were compared using Student’s t test. A P-value of <0.05 was considered significant. The relative bioavailability (RB %) was calculated as follows: RelativebioavailabilityRB%=AUCcoadimin/AUCcontrol×100

[2] = set-up: method as in PMID 21428247; details: cited from earlier work
[3] = set-up: method as in PMID 21428247; details: cited from earlier work; remark: listed apart in the source
[4] = Stability of LUME and 97-63 in rat plasma (auto-sampler, bench top, freeze/thaw, freezer); format: in vitro ADME; details: n = 6
Description: All stability studies were conducted at two concentration levels, i.e., QC low and QC high, using six replicates at each concentration levels. […] The peak areas of analyte and IS obtained at initial cycle were used as the reference to determine the stability at subsequent points. The stability of LUME and 97–63 in the biomatrix during 6 hrs of exposure at room temperature in rat plasma (bench top (BT)) was determined at ambient temperature (25 ± 2°C). Freeze/thaw (FT) stability was evaluated up to three cycles. In each cycle, samples were frozen for at least 12 hrs at −70 ± 10°C. Freezer stability of both analytes in rat plasma was assessed by analysing the QC samples stored at −70 ± 10°C for at least 15 days. Samples were considered to be stable if assay values were within the acceptable limits of accuracy (i.e., ±15% deviation) and precision (i.e., ±15% RSD).

[5] = LUME 10 mg/kg with 97-78 70 mg/kg oral, rats
[6] = LUME 10 mg/kg oral co-administered with 97-78 70 mg/kg oral
[7] = control: LUME 10 mg/kg oral alone
[8] = 10 ng/mL, 6 hrs (BT) bench top 25 ± 2°C
[9] = 10 ng/mL, 24 hrs (AS) auto-sampler at 4°C, processed samples
[10] = 10 ng/mL, FT-3 (three freeze/thaw cycles, −70 ± 10°C)
[11] = 400 ng/mL, 6 hrs (BT) bench top 25 ± 2°C
[12] = 400 ng/mL, 24 hrs (AS) auto-sampler at 4°C, processed samples
[13] = 400 ng/mL, FT-3 (three freeze/thaw cycles, −70 ± 10°C)

effect of LUME co-administration on PK parameters of 97-78 other than Tmax ([1]; 97-78 70 mg/kg with LUME 10 mg/kg oral, rats): no significant effect
Compound: C=C(c1ccc(OC(C)(C)COC(=O)CCC(=O)O)cc1)C1OCC2(OO1)C1CC3CC(C1)CC2C3 (centres unmarked) [97-78]
conversion into active metabolite 97-63 in vivo [2]: rapidly and completely converted
conversion to 97-63 in plasma [3]: rapidly converted

RB% (relative bioavailability = AUC coadmin/AUC control × 100) ([1]; rats): 64.41^* %
RB% (relative bioavailability = AUC coadmin/AUC control × 100) ([1]; rats, listed as lumefantrine): 64.41%
decrease of AUC0-∞ of orally administered LUME in presence of 97-78 ([1]; LUME 10 mg/kg with 97-78 70 mg/kg oral vs LUME alone, rats, p <0.05): 63.26%
effect of 97-78 co-administration on Cmax of LUME [1, 5]: not significantly altered
effect of 97-78 co-administration on Tmax of LUME [1, 5]: not significantly altered
AUC(0-inf) [1, 6]: 11000 ± 660 ng·h/mL
AUC(0-t) [1, 6]: 10600 ± 710 ng·h/mL
CL/F [1, 6]: 15.2 mL/min/kg
Cmax [1, 6]: 1920 ± 620 ng/mL
Tmax [1, 6]: 4 ± 2.45 h
Vd/F [1, 6]: 62.7 ± 8.4 L/kg
half-life [1, 6]: 47.8 ± 6.48 h
AUC(0-inf) [1, 7]: 17400 ± 3290 ng·h/mL
AUC(0-t) [1, 7]: 16500 ± 2960 ng·h/mL
CL/F [1, 7]: 9.83 mL/min/kg
Cmax [1, 7]: 1810 ± 750 ng/mL
Tmax [1, 7]: 3.75 ± 1.5 h
Vd/F [1, 7]: 39.5 ± 6.26 L/kg
half-life [1, 7]: 46.9 ± 6.52 h
Stability in rat plasma: Accuracy (%) [4, 8]: 101.73%
Stability in rat plasma: Accuracy (%) [4, 9]: 103.72%
Stability in rat plasma: Accuracy (%) ([4]; 10 ng/mL, 15 days at −70°C): 105.73%
Stability in rat plasma: Accuracy (%) [4, 10]: 99.48%
Stability in rat plasma: Accuracy (%) [4, 11]: 101.03%
Stability in rat plasma: Accuracy (%) [4, 12]: 101.51%
Stability in rat plasma: Accuracy (%) ([4]; 400 ng/mL, 15 days at −70°C): 102.54%
Stability in rat plasma: Accuracy (%) [4, 13]: 106.78%
Compound: CCCCN(CCCC)CC(O)c1cc(Cl)cc2c1-c1ccc(Cl)cc1C2=Cc1ccc(Cl)cc1 (centres unmarked) [LUME, 2-dibutylamino-1-[2,7-dichloro-9-(4-chlorobenzylidene)-9H-fluoren-4-yl]-ethanol]

Stability in rat plasma: Accuracy (%) [4, 8]: 93.85%
Stability in rat plasma: Accuracy (%) [4, 9]: 104.67%
Stability in rat plasma: Accuracy (%) ([4]; 10 ng/mL, 15 days at −70°C): 100.47%
Stability in rat plasma: Accuracy (%) [4, 10]: 98.16%
Stability in rat plasma: Accuracy (%) [4, 11]: 95.85%
Stability in rat plasma: Accuracy (%) [4, 12]: 100.45%
Stability in rat plasma: Accuracy (%) ([4]; 400 ng/mL, 15 days at −70°C): 98.72%
Stability in rat plasma: Accuracy (%) [4, 13]: 99.79%
Compound: C=C(c1ccc(OC(C)(C)CO)cc1)C1OCC2(OO1)C1CC3CC(C1)CC2C3 (centres unmarked) [97-63]
